Usually pKd stands for −log10 of the Kd, conventionally taken in molar units. Broadly, the pIC50 is the negative decadic logarithm of the IC50, by convention in mol/L. The term IC50 denotes the concentration that inhibits the measured activity by half. Read a high IC50 as a need for much substance. By bioavailability is commonly meant the share of a dose that reaches the circulation, judged against a reference dose that is usually intravenous.

Series [1] is described as follows: Binding affinity to pig spleen Hsp90 ATPase pocket by Bradford assay. It is filed as tissue-based, Sus scrofa.
Series [2] addresses T1, Heat shock protein HSP90 (Homo sapiens, UniProt P07900+P08238). The class given is cell-based. The settings on record: au565.
For series [3], the system named is NCI-H460. Nature of the series: Antiproliferative activity against human NCI-H460 cells after 72 to 144 hrs by cyquant DNA dye method. It is filed as functional, cell-based.
Series [4] addresses T1, Heat shock protein HSP90. The settings on record: a-375.
Description: Inhibition of Hsp90 in human A375 cells assessed as Hsp70 induction after 24 hrs by high content screening
Series [5] deals with T1, Heat shock protein HSP90. To be noted: au565.
Description: Inhibition of Hsp90 in human AU565 cells assessed as pERK degradation after 24 hrs by high content screening
Series [6] deals with HCT-15. Kind of series: Antiproliferative activity against human HCT15 cells after 72 to 144 hrs by cyquant DNA dye method. It is filed as functional, cell-based.
In series [7] the test system is SK-MEL-5. Nature of the series: Antiproliferative activity against human SK-MEL-5 cells after 72 to 144 hrs by cyquant DNA dye method. It is filed as functional, cell-based.
Series [8] has as its system HT-29. Kind of series: Antiproliferative activity against human HT-29 cells after 72 to 144 hrs by cyquant DNA dye method. The class given is functional, cell-based.
Series [9] concerns MCF7. Kind of series: Antiproliferative activity against human MCF7 cells after 72 to 144 hrs by cyquant DNA dye method. It is filed as functional, cell-based.
The subject of series [10] is K562. Nature of the series: Antiproliferative activity against human K562 cells after 72 to 144 hrs by cyquant DNA dye method. The class given is functional, cell-based.
The subject of series [11] is LNCaP. Kind of series: Antiproliferative activity against human LNCAP cells after 72 to 144 hrs by cyquant DNA dye method. The class given is functional, cell-based.
Series [12] deals with PC-3. Kind of series: Antiproliferative activity against human PC3 cells after 72 to 144 hrs by cyquant DNA dye method. The class given is functional, cell-based.
Series [13] concerns the target T1, Heat shock protein HSP90. To be noted: a-375. The source holds these as a separate data set.
Description: Inhibition of Hsp90 in human A375 cells assessed as pS6 degradation after 24 hrs by high content screening
The nature of series [14]: Oral bioavailability in rat. It is filed as ADME, organism-based. To be noted: in vivo.
Series [15] concerns SW-620. Nature of the series: Antiproliferative activity against human SW620 cells after 72 to 144 hrs by cyquant DNA dye method. It is filed as functional, cell-based.
Series [16] has as its system A-375. Kind of series: Antiproliferative activity against human A375 cells after 72 to 144 hrs by cyquant DNA dye method. It is filed as functional, cell-based.
Series [17] deals with MDA-MB-231. Nature of the series: Antiproliferative activity against human MDA-MB-231 cells after 72 to 144 hrs by cyquant DNA dye method. It is filed as functional, cell-based.

pIC50, pKd: −log10 of the molar value.

Regarding `Cc1nn(-c2ccc(C(N)=O)c(NC3CCOCC3)c2)c2c1C(=O)CC(C)(C)C2`, the pKd in series [1] is 7.37. In [2], the pIC50 is 7.30.

In the case of `CC1(C)CC(=O)c2c(C(F)(F)F)nn(-c3ccc(C(N)=O)c(NCCCN4CCCC4=O)c3)c2C1`, in [1], the negative-log Kd (pKd) is 7.03. This compound gave a pIC50 in series [2] of 6.58.

In series [1], `Cc1c2c(n(-c3ccc(C(N)=O)c(N[C@H]4CC[C@H](O)CC4)c3)c1C)CC(C)(C)CC2=O` had a pKd of 7.07. For the same compound, the pIC50 in [2] was 7.19.

As to `Cc1cn(-c2ccc(C(N)=O)c(N[C@@H](C)c3ccccc3)c2)c2c1C(=O)CC(C)(C)C2`, in series [1], the pKd is 5.99. Moreover, in series [2], the pIC50 is 6.38.

Consider `CC(C)c1nn(-c2ccc(C(N)=O)c(N[C@H]3CC[C@H](O)CC3)c2)c2c1C(=O)CC(C)(C)C2`, for which the pKd in series [1] is 6.75. Besides, the negative logarithm of the IC50 (pIC50) in series [2] was 6.69.

`CSCCNc1cc(-n2nc(C)c3c2CC(C)(C)CC3=O)ccc1C(N)=O`: the negative logarithm of the Kd (pKd) in series [1] is 7.20. The compound further had a pIC50 in series [2] of 6.65.

For `Cc1cn(-c2ccc(C(N)=O)c(N3CCNCC3)c2)c2c1C(=O)CC(C)(C)C2`, the pKd in series [1] was 6.07. The compound further showed a pIC50 in series [2] below 5.15.

In turn, `COc1cc(Nc2cc(-n3cc(C)c4c3CCCC4=O)ccc2C(N)=O)cc(OC)c1OC` had a pKd in series [1] of 6.03. For the same compound, the IC50 in series [2] came to 1610 nM.

`Cc1cc2c(n1-c1ccc(C(N)=O)c(Nc3ccccc3)c1)CC(C)(C)CC2=O` had a pKd in series [1] of 6.43. The same compound yielded an IC50 in [2] of 6400 nM.

Turning to `COCCNc1cc(-n2c(C)cc3c2CC(C)(C)CC3=O)ccc1C(N)=O`, in series [1], the pKd was 6.41. This compound had an IC50 in series [2] above 10000 nM.

For `Cc1cn(-c2ccc(C(N)=O)c(NCCN3CCOCC3)c2)c2c1C(=O)CC(C)(C)C2`, the pKd in series [1] is 6.53. Moreover, the pIC50 in series [2] was below 5.40.

The compound `Cc1cc2c(n1-c1ccc(C(N)=O)cc1)CC(C)(C)CC2=O` had a pKd in [1] of 5.43. In addition, the IC50 in series [2] is above 100000 nM.

`CCCCCc1cc(-n2c(C)cc3c2CC(C)(C)CC3=O)ccc1C(N)=O` showed a pKd in [1] of 5.71. In addition, in series [2], the half-maximal inhibitory concentration (IC50) was above 10000 nM.

Turning to `CC1(C)CC(=O)c2c(CC3CC3)nn(-c3ccc(C(N)=O)c(N[C@H]4CC[C@H](O)CC4)c3)c2C1`, the pKd in series [1] was 7.39. Moreover, the negative logarithm of the IC50 (pIC50) in series [2] is 7.34.

The compound `CCCCOc1cc(-n2c(C)cc3c2CC(C)(C)CC3=O)ccc1C(N)=O` showed a pKd in series [1] below 4.30. This compound also displayed an IC50 in [2] above 10000 nM.

For `COc1ccc(Nc2cc(-n3c(C)cc4c3CC(C)(C)CC4=O)ccc2C(N)=O)cc1`, the pKd in series [1] is 6.16. Also, in [2], the IC50 was found to be 1590 nM.

In [1], `Cc1cc2c(n1-c1ccc(C(N)=O)c(Sc3ccccc3)c1)CC(C)(C)CC2=O` gave a negative logarithm of the Kd (pKd) of 5.97. Moreover, in series [2], the IC50 is above 10000 nM.

Take `COc1cc(Nc2cc(-n3cc(C)c4c3CC(C)(C)CC4=O)ccc2C(N)=O)cc(OC)c1OC`: the negative-log Kd (pKd) in series [1] is 6.41. The half-maximal inhibitory concentration (IC50) in series [2] was found to be 46 nM.

`CC1(C)CC(=O)c2c(C(F)F)nn(-c3ccc(C(N)=O)c(N[C@H]4CC[C@H](O)CC4)c3)c2C1` showed a negative logarithm of the Kd (pKd) in [1] of 7.01. In addition, the pIC50 in series [2] is 7.80.

Turning to `CC1(C)CC(=O)c2c(C(F)(F)F)nn(-c3ccc(C(N)=O)c(N[C@H]4CC[C@@H](O)CC4)c3)c2C1`, the pKd in [1] is 6.28.

In series [1], `CC1(C)CC(=O)c2c(C(F)F)nn(-c3ccc(C(N)=O)c(NC4CCSCC4)c3)c2C1` had a pKd of 7.96. The pIC50 in [2] is 7.46.

Take `Cc1nn(-c2ccc(C(N)=O)c(NCc3ccco3)c2)c2c1C(=O)CC(C)(C)C2`: the pKd in series [1] was 6.67. In addition, the pIC50 in series [2] is below 6.00.

In [1], `Cc1nn(-c2ccc(C(N)=O)c(NCC3CC3)c2)c2c1C(=O)CC(C)(C)C2` showed a pKd of 7.29. This compound also had a pIC50 in series [2] of 6.74.

In turn, `Cc1nn(-c2ccc(C(N)=O)c(NC(C)S(C)(=O)=O)c2)c2c1C(=O)CC(C)(C)C2` (centres undefined) gave a pKd in series [1] of 7.85. In series [2], this compound showed a pIC50 of 6.83.

For the compound `COCC(C)Nc1cc(-n2nc(C)c3c2CC(C)(C)CC3=O)ccc1C(N)=O` (centres undefined), the pKd in series [1] was 7.17. Moreover, the pIC50 in [2] is 6.94.

`CCCCNc1cc(-n2c(C)cc3c2CC(C)(C)CC3=O)ccc1C(N)=O` showed a negative logarithm of the Kd (pKd) in [1] of 6.41. Besides, in series [2], the half-maximal inhibitory concentration (IC50) was above 10000 nM.

`COc1cc(Nc2cc(-n3c(C)cc4c3CC(C)(C)CC4=O)ccc2C(N)=O)cc(OC)c1OC` had a pKd in [1] of 6.66. In addition, in series [2], the 50% inhibitory concentration (IC50) was found to be 490 nM.

The compound `COc1cc(Nc2cc(-n3ccc4c3CC(C)(C)CC4=O)ccc2C(N)=O)cc(OC)c1OC` gave a pKd in [1] of 9.23. In series [2], this compound registered an IC50 of 1830 nM.

`CCc1nn(-c2ccc(C(N)=O)c(N[C@H]3CC[C@H](O)CC3)c2)c2c1C(=O)CC(C)(C)C2` had a pKd in [1] of 7.70. Further, in [2], the negative logarithm of the IC50 (pIC50) is 8.05.

On to `Cc1cn(-c2ccc(C(N)=O)c(N[C@H]3CC[C@H](O)CC3)c2)c2c1C(=O)CC(C)(C)C2`, for which the pKd in series [1] is 7.57. Further, the pIC50 in series [3] is 6.61; in [6], 7.21; in [7] it was 8.15; in [8], 8.15; in series [9], 8.00; in series [10], 8.52. In addition, the pIC50 is 8.40 in [11]; 7.85 in series [12]; 8.15 in [2]; 8.22 in [15]; 8.05 in series [16]; 8.00 in [17]. Further, the IC50 in series [4] is 14 nM; in [5] it was 16 nM; in series [13], 7 nM. The bioavailability in [14] is 10%.

In the case of `Cc1nn(-c2ccc(C(N)=O)c(N[C@H]3CC[C@H](O)CC3)c2)c2c1C(=O)CC(C)(C)C2`, the pKd in series [1] was 7.80. Also, the pIC50 in series [2] is 7.52.

As for `Cc1nn(-c2ccc(C(N)=O)c(NC3CCC3)c2)c2c1C(=O)CC(C)(C)C2`, in series [1], the pKd is 6.94. Besides, the negative logarithm of the IC50 (pIC50) in series [2] was 6.64.

In series [1], `COCC(COC)Nc1cc(-n2nc(C(F)(F)F)c3c2CC(C)(C)CC3=O)ccc1C(N)=O` gave a pKd of 7.11. The compound further had a pIC50 in [2] of 6.74.

As to `Cc1nn(-c2ccc(C(N)=O)c(NC3CC=CC3)c2)c2c1C(=O)CC(C)(C)C2`, in series [1], the pKd was 7.82. The compound also showed a negative-log IC50 (pIC50) in [2] of 6.95.

Turning to `C=CCNC1=C2C[C@@H](C)C[C@H](OC)[C@H](O)[C@@H](C)/C=C(\C)[C@H](OC(N)=O)[C@@H](OC)/C=C\C=C(/C)C(=O)NC(=CC1=O)C2=O` [TANESPIMYCIN], in series [1], the pKd was 7.06. Besides, the pIC50 is 6.59 in series [3]; 5.83 in [6]; 6.87 in series [7]; 10.00 in series [8]; 9.52 in series [9]; 6.90 in [10]. The pIC50 in series [11] was 7.09; in [12] it was 8.05; in [15], 6.48; in series [16] it was 5.89; in series [17], 6.71.
